Consider one compound from ChEMBL document CHEMBL5380809, “Discovery of Novel N-Hydroxy-1,2,4-oxadiazole-5-formamides as ASM Direct Inhibitors for the Treatment of Atherosclerosis” (J Med Chem, 2023).

A word on the Tmax: it is the time from dosing to the highest level. As usually defined, the IC50 is the midpoint of a concentration-inhibition curve. For orientation: MRT last means the average time that molecules of a dose stay in the body.

Data set [1] concerns Mus musculus. Kind of data set: In vivo inhibition of aSMase in C57BL/6 mouse assessed as decrease in plasma S1P level at 6 to 40 mg/kg, ip bid for 1 week by ELISA method. The format is functional, organism-based. To be noted: dose 6-40 mg/kg, time 1.0 weeks. In general terms: An ELISA detects its analyte on a solid surface through an enzyme-linked reagent.
Data set [2] deals with Mus musculus. Kind of data set: Antiatherosclerotic activity in high-fat diet fed ApoE-/- mouse assessed as reduction in plasma LDL-C level at 12 to 40 mg/kg, ip bid measured after 8 weeks. The format is functional, organism-based. To be noted: dose 12-40 mg/kg.
A short description of data set [3]: Tmax in ICR mouse at 10 mg/kg, po measured for 0.083 to 24 hrs by LC-MS/MS analysis. The format is ADME, organism-based. The settings on record: in vivo, time 0.083-24 hrs.
Data set [4] has as its target T1, Sphingomyelin phosphodiesterase (Homo sapiens, UniProt P17405).
T1 sequence (P17405 whole entry): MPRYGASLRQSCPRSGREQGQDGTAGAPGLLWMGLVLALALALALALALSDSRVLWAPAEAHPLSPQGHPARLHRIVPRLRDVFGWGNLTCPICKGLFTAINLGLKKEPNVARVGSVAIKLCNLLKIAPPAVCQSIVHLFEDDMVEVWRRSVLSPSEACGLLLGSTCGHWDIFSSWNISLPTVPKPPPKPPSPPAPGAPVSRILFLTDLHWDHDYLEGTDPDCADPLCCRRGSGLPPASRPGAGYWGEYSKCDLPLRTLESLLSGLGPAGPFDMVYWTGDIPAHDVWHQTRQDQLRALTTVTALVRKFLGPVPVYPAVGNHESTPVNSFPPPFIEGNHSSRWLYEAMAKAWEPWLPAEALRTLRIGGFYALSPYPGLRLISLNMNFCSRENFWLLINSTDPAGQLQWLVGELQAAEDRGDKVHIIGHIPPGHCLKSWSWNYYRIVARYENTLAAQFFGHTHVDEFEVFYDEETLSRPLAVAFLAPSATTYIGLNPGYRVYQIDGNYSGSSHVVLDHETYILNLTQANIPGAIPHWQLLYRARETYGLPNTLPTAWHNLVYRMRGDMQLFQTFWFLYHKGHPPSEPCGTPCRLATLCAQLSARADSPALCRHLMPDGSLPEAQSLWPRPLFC
Kind of data set: Inhibition of recombinant human aSMase (62 to 628 residues) using HMU-PC as substrate incubated for 2 hrs by fluorescence based assay.

The test system of data set [5] is Mus musculus. The experiment in a line: In vivo inhibition of aSMase in C57BL/6 mouse assessed as decrease in liver ceramide level at 6 to 40 mg/kg, ip bid for 1 week by ELISA method. The format is functional, organism-based. To be noted: dose 6-40 mg/kg, time 1.0 weeks.
Data set [6] concerns HUVEC. Kind of data set: Downregulation of extracellular ceramide level in LPS-induced HUVEC cells upto 5 uM measured after 22 hrs by ELISA method. In kind it is functional, cell-based. The settings on record: Homo sapiens.
For data set [7], the system named is Mus musculus. The experiment in a line: Antiatherosclerotic activity in high-fat diet fed ApoE-/- mouse assessed as reduction in aortic arch lipid accumulation at 12 to 40 mg/kg, ip bid measured after 8 weeks. The format is functional, organism-based. The settings on record: dose 12-40 mg/kg.
Data set [8] can be described thus: MRT (0 to t) in ICR mouse at 1 mg/kg, iv measured for 0.083 to 24 hrs by LC-MS/MS analysis. The format is ADME, organism-based. The settings on record: in vivo, time 0.083-24 hrs.
In data set [9] the test system is HUVEC. Kind of data set: Downregulation of intracellular ceramide level in HUVEC cells at 5 uM measured after 22 hrs by ELISA method. To be noted: Homo sapiens. The format is functional, cell-based.
The test system of data set [10] is HUVEC. The experiment in a line: Antiinflammatory activity against HUVEC cells assessed as decrease in Ox-LDL-induced MCP-1 mRNA level at 5 uM measured after 22 hrs by RT-PCR analysis. In kind it is functional, cell-based. To be noted: Homo sapiens.
In data set [11] the test system is Mus musculus. The experiment in a line: In vivo inhibition of aSMase in C57BL/6 mouse assessed as decrease in plasma sphingomyelin level at 6 to 40 mg/kg, ip bid for 1 week by ELISA method. The format is functional, organism-based. To be noted: dose 6-40 mg/kg, time 1.0 weeks.

Calls of active or inactive are those of the source. No cut-off for these calls is given here.

Take `O=C(NO)c1nc(-c2ccc(COc3ccc(Br)cc3)cc2)no1`: the result in the data set on Mus musculus [1] was inactive. The outcome in the data set on Mus musculus [2], in the data set on Mus musculus [5], with HUVEC [6], in the data set on Mus musculus [7], in the data set with HUVEC [9] and in the data set on HUVEC [10] was Active. Moreover, the outcome in the data set on Mus musculus [11] was Active. Moreover, the Tmax in data set [3] is 4.98 min. Besides, in [4], the IC50 amounted to 1500 nM. Besides, the mean residence time (MRT last) in data set [8] was 4.62 min.
